Assay results reported in EP1382597A2, “Steroid receptor modulator compounds and methods” (LIGAND PHARMACEUTICALS, INC., priority 1994, dated 1996).

Experiments:
[1] = target: T1, AR (Homo sapiens, UniProt P10275); test: Co-transfection assay, AR antagonist activity; format: cell-based
T1 construct: expressed in transfected cells; host or cells: CV-1 cells, transient transfection

[2] = target: T1, AR; test: Co-transfection assay, AR agonist activity; format: cell-based
[3] = target: T2, human PR-B (Homo sapiens, UniProt P06401); test: Co-transfection assay, PR agonist activity; format: cell-based;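 also: CV-1 cells (African green monkey kidney) co-transfected with receptor plasmid and hormone-responsive firefly luciferase reporter, agonism read as compound-dependent rise in luciferase signal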
T2 construct: expressed in transfected cells; host or cells: CV-1 cells (African green monkey kidney fibroblasts), transient transfection
T2 sequence (P06401 1-933): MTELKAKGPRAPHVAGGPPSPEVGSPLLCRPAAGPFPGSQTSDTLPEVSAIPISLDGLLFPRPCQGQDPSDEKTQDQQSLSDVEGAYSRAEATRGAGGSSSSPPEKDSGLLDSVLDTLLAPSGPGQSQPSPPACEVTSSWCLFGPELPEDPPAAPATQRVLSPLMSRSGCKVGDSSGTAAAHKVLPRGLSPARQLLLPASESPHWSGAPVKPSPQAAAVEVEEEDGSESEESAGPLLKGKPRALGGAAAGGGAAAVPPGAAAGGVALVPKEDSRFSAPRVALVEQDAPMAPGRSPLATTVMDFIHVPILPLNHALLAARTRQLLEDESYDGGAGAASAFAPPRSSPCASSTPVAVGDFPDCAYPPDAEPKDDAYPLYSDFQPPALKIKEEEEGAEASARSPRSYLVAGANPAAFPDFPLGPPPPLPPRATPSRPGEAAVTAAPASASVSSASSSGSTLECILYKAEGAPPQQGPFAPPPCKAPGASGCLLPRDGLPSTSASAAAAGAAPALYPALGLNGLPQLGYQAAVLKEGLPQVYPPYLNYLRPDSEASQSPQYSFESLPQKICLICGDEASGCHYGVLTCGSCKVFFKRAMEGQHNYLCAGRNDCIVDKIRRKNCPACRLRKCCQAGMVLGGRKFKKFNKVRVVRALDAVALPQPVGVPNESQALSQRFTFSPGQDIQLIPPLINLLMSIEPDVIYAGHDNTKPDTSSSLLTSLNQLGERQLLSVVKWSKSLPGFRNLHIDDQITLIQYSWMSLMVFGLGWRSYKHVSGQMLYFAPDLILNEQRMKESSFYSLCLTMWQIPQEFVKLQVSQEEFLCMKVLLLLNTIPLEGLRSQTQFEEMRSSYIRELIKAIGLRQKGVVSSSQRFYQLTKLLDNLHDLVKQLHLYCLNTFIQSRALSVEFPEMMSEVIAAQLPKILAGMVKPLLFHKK

[4] = target: T2, human PR-B; test: Co-transfection assay, PR antagonist activity; format: cell-based;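 also: monkey kidney fibroblasts co-transfected with receptor expression plasmid and hormone-responsive luciferase reporter, antagonism read as reduced luciferase signal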
[5] = target: T3, ER (Homo sapiens, UniProt P03372); test: Co-transfection assay, ER antagonist activity; format: cell-based; details: for ER Antagonist CV-1 Cells Efficacy (%): percent maximal inhibition, estradiol at its EC50
T3 construct: expressed in transfected cells; host or cells: CV-1 cells, transient transfection, with MTV-ERE5-LUC reporter
T3 sequence (P03372 whole entry): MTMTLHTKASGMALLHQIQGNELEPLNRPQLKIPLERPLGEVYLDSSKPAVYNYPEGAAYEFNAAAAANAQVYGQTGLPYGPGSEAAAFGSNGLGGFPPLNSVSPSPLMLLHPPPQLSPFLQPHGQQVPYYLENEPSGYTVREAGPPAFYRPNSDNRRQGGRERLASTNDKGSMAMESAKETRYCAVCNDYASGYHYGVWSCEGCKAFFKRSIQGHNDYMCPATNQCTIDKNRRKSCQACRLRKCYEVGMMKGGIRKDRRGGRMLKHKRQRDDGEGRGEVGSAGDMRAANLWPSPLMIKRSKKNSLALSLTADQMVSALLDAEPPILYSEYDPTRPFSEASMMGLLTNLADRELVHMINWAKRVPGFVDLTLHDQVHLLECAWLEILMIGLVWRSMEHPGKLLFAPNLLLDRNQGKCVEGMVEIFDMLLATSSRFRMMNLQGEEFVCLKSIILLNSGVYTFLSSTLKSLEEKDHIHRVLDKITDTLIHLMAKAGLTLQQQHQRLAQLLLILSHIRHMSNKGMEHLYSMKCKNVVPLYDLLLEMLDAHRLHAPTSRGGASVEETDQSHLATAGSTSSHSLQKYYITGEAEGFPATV

[6] = target: T4, AR (Rattus norvegicus, UniProt P15207); test: Immature castrated male rat model (antiandrogen activity); format: in vivo, rats (Sprague-Dawley); details: for %SV growth / %VP growth: 0 mg TP = 100; for SV (wet wt): seminal vesicles
T4 construct: from tissue; host or cells: live Sprague-Dawley rats; ventral prostate and seminal vesicles weighed
T4 sequence (P15207 1-902): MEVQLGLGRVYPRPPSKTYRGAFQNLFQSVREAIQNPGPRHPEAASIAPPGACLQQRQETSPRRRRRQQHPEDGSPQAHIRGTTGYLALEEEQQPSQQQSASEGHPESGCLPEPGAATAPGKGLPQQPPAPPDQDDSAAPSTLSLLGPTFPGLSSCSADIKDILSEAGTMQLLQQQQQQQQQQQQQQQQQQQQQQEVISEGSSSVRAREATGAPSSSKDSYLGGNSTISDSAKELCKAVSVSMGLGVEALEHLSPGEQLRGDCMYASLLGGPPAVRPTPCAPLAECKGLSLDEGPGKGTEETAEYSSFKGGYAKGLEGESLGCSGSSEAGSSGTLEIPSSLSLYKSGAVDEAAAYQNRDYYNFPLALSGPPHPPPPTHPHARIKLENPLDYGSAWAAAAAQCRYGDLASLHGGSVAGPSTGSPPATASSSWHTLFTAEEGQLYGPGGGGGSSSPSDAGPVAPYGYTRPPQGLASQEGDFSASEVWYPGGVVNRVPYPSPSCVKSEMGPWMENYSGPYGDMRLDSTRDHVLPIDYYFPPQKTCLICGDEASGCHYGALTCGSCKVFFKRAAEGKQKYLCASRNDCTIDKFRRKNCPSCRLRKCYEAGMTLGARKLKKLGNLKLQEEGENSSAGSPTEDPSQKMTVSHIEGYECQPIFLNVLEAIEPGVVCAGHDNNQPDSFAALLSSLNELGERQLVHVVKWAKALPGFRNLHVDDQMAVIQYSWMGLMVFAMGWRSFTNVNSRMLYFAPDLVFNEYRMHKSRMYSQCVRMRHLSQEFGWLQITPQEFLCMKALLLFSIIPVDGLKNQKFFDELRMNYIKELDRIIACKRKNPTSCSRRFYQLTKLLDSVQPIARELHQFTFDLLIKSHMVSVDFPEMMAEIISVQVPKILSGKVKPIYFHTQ
Excerpt: Since the male sex organs are the tissues most responsive to modulation of androgen activity, this model is used to determine the androgen-dependent growth of the sex accessory organs in immature castrated rats.
At the end of the 3-day treatment, the animals were sacrificed, and the ventral prostates (VP) and seminal vesicles (SV) were collected and weighed. To compare data from different experiments, the sexual organ weights were first standardized as mg per 100 g of body weight, and the increase in organ weight induced by TP was considered as the maximum increase (100%). Super-anova (one factor) was used for statistical analysis.

[7] = CV-1, read-out: AR Antagonist CV-1 Cells Efficacy (%)
[8] = CV-1, read-out: AR Agonist CV-1 Cells Efficacy (%)
[9] = CV-1 cells; percent maximal inhibition, DHT at its EC50
[10] = CV-1 cells; relative to reference agonist DHT
[11] = 0.01 mg TP once daily for 3 days
[12] = 0.03 mg TP once daily for 3 days
[13] = 0.1 mg TP once daily for 3 days
[14] = 0.3 mg TP once daily for 3 days

T1 sequence (P10275 whole entry): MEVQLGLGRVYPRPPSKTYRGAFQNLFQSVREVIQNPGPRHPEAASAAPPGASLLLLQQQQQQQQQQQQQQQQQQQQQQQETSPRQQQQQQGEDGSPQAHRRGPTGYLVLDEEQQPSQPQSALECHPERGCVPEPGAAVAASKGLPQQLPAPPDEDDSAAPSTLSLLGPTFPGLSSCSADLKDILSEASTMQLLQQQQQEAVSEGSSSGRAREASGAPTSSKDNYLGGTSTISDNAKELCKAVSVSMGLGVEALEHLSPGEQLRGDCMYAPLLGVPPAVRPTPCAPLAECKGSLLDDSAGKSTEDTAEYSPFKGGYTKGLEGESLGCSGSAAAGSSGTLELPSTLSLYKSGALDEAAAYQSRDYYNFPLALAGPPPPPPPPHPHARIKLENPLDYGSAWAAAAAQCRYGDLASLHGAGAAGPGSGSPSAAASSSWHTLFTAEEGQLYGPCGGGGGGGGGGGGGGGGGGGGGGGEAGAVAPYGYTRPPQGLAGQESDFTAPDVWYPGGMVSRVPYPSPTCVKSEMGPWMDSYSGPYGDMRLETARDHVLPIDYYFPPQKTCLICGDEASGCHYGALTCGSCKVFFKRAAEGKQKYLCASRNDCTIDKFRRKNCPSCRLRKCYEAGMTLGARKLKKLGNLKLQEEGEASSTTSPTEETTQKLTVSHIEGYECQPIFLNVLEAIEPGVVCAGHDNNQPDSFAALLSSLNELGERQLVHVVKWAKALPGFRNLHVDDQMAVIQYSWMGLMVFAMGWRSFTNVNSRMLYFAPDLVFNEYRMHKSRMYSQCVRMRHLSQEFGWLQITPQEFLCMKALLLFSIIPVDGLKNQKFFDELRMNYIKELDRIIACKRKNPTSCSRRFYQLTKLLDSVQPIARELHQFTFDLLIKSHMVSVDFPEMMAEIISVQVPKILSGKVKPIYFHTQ

SMILES: CC1C(=O)C(C)(C)Nc2cc3[nH]c(=O)cc(C(F)(F)F)c3cc21 (racemic) [Compound 418, (R/S)-1,2,3,4-tetrahydro-6-trifluoromethyl-2,2,4-trimethyl-8-pyridono[5,6-f]-3-quinolinone]
- Emax [1, 7]: 63%
- Emax [2, 8]: < 20%

SMILES: CC1CC(C)(C)Nc2cc3[nH]c(=O)cc(C(F)(F)F)c3cc21 (racemic) [Compound 260, 1,2,3,4-Tetrahydro-2,2,4-trimethyl-6-trifluoromethyl-8-pyridono[5,6-g]quinoline]
- EC50 [3]: > 10000 nM
- IC50 [4]: 230 nM
- AR Antagonist CV-1 Cells Efficacy (%) [1, 9]: 53%

SMILES: O=c1cc(C(F)(F)F)c2cc3c(cc2[nH]1)NCC3 [Compound 419, 5-Trifluoromethyl-7-pyridono[5,6-e]indoline]
- AR Antagonist CV-1 Cells Efficacy (%) [1, 9]: 74%
- AR Agonist CV-1 Cells Efficacy (%) [2, 10]: 29%

SMILES: CC1CC(C)(C)Nc2cc3oc(=O)cc(-c4ccoc4)c3cc21 (racemic) [Compound 405, (R/S)-5-(3-Furyl)-1,2,3,4-tetrahydro-2,2,4-trimethyl-8-pyranono[5,6-g]quinoline]
- Emax [1, 7]: 89%
- Emax [2, 8]: < 20%

SMILES: CC1=CC(C)(C)Nc2ccc3c(c21)C(c1cccc(F)c1)Oc1ccccc1-3 (racemic) [Compound 191, (R/S)-5-(3-Fluorophenyl)-1,2-dihydro-2,2,4-trimethyl-5H-chromeno[3,4-f]quinoline]
- IC50 [5]: 330 nM
- ER Antagonist CV-1 Cells Efficacy (%) [5]: 93%
- Emax ([3]; CV-1, read-out: PR Agonist CV-1 Cells Efficacy (%)): 26%
- Emax ([4]; CV-1, read-out: PR Antagonist CV-1 Cells Efficacy (%)): 74%
- IC50 [1]: 520 nM

SMILES: CC1=CC(C)(C)Nc2cc3oc(=O)cc(C(F)(F)F)c3cc21 [Compound 238, 1,2-Dihydro-2,2,4-trimethyl-6-trifluoromethyl-8-pyranono[5,6-g]quinoline]
- Emax [1, 7]: < 20%
- Emax [2, 8]: 96%

SMILES: CC1(C)CNc2cc3[nH]c(=O)cc(C(F)(F)F)c3cc2C1 [Compound 437, 1,2,3,4-Tetrahydro-3,3-dimethyl-6-trifluoromethyl-8-pyridono[5,6-g]quinoline]
- Emax ([1]; CV-1; read-out: AR Antagonist CV-1 Cells Efficacy (%)): 72%
- Emax ([2]; CV-1; read-out: AR Agonist CV-1 Cells Efficacy (%)): < 20%

SMILES: CCC1CCNc2cc3oc(=O)cc(C(F)(F)F)c3cc21 (racemic) [Compound 414, (R/S)-4-Ethyl-1,2,3,4-tetrahydro-6-trifluoromethyl-8-pyranono[5,6-g]quinoline]
- Emax [1, 7]: < 20%
- Emax [2, 8]: 118%

SMILES: COc1cccc(C2Oc3ccccc3-c3ccc4c(c32)C(C)=CC(C)(C)N4)c1 (racemic) [Compound 194, (R/S)-1,2-Dihydro-5-(3-methoxyphenyl)-2,2,4-trimethyl-5H-chromeno[3,4-f]quinoline]
- IC50 [5]: 390 nM
- ER Antagonist CV-1 Cells Efficacy (%) [5]: 94%

SMILES: CC1=CC(C)(C)Nc2cc3oc(=O)cc(C(F)(F)C(F)(F)F)c3cc21 [Compound 256, 1,2-Dihydro-2,2,4-trimethyl-6-(1,1,2,2,2-pentafluoroethyl)-8-pyranono[5,6-g]quinoline]
- Emax [1, 7]: 91%
- Emax [2, 8]: < 20%

SMILES: CC1=CC(C)(C)Nc2cc3[nH]c(=O)cc(C(F)(F)F)c3cc21 [Compound 247, 1,2-Dihydro-2,2,4-trimethyl-6-trifluoromethyl-8-pyridono[5,6-g]quinoline]
- AR Antagonist CV-1 Cells Efficacy (%) [1, 9]: 69%
- AR Agonist CV-1 Cells Efficacy (%) [2, 10]: 23%

SMILES: CCC(=O)O[C@H]1CC[C@H]2[C@@H]3CCC4=CC(=O)CC[C@]4(C)[C@H]3CC[C@]12C [TP, Testosterone Propionate]
- %SV growth [6, 11]: 165.1%
- %VP growth [6, 11]: 146.5%
- VP (wet wt) ([6]; 0.01 mg TP once daily for 3 days, castrated immature rats, ventral prostate (organ weights standardized as mg per 100 g body weight)): 15.4±0.6
- SV (wet wt) [6, 11]: 12.3±0.8
- %SV growth [6, 12]: 369.5%
- %VP growth [6, 12]: 224.1%
- SV (wet wt) [6, 12]: 27.5±0.8
- VP (wet wt) ([6]; 0.03 mg TP once daily for 3 days, ventral prostate): 23.5±1.3
- SV (wet wt) ([6]; 0.1 mg TP once daily for 3 days (Table 8)): 42.0±2.0
- VP (wet wt) ([6]; 0.1 mg TP once daily for 3 days (Table 8), ventral prostate): 35.3±2.1
- %SV growth [6, 13]: 563.8%
- %VP growth [6, 13]: 337.0%
- %SV growth [6, 14]: 616.1%
- %VP growth [6, 14]: 415.9%
- SV (wet wt) [6, 14]: 45.9±1.9
- VP (wet wt) ([6]; 0.3 mg TP once daily for 3 days, ventral prostate): 43.6±1.1
- %SV growth ([6]; 1 mg TP once daily for 3 days): 684.6%
- %VP growth ([6]; 1 mg TP once daily for 3 days): 427.4%
- SV (wet wt) ([6]; 1 mg TP once daily for 3 days): 51.0±5.4
- VP (wet wt) ([6]; 1 mg TP once daily for 3 days, ventral prostate): 44.8±3.7
- SV wt (% of TP (0.1) control) ([6]; TP (0.1) alone (Table 9)): 100%
- VP wt (% of TP (0.1) control) ([6]; TP (0.1) alone (Table 9)): 100%
- SV (wet wt) ([6]; TP (0.1) alone (Table 9), 3 days): 33.6±4.0
- VP (wet wt) ([6]; TP (0.1) alone (Table 9), 3 days, ventral prostate): 25.5±1.2
- EC50 (increase in organ wet weights) ([6]; immature castrated rats, dosing for 3 days, VP and SV): ~0.03 mg
